# Assay results taken from US20150018317A1, “BIOCIDAL COMPOSITION” (Dow Global Technologies LLC, priority 2010, published 2015).
# System: bacteria isolated from a industrial cooling water sample
# Test: Time-kill test in cooling water samples (MPN serial dilution)
# Format: cell-based
# Settings: 37° C., start about 5×10^7 CFU/ml
# Procedure: In this example, tributyl tetradecyl phosphonium chloride (TTPC), tetrakis(hydroxymethyl)phosphonium sulfate (THPS), and combinations of TTPC and THPS are tested at different concentrations for efficacy against bacteria isolated from a industrial cooling water sample. Water samples containing a final bacterial concentration of about 5×10^7 CFU/ml are used. Biocide solutions are prepared and diluted in sterile deionized water and used within 2 hours.
# Time-kill tests are carried out to determine the threshold concentrations required for biocide activity in the cooling water samples. Tests are conducted in a 96-deep well block format using a total sample volume of 600 μl for all evaluations. In these samples, no more than 10% of the total volume consists of the biocide and organism solution and all non-matrix additions are normalized for all samples. Each experimental 96-well block contains biocide-treated samples and control samples which lack biocide. The biocides are added to the bacterial suspension at various concentrations and mixed well. The mixture samples are then incubated at 37° C. At several time intervals starting from 1 hour, viable bacteria left in the mixture are determined using the MPN method of serial dilution.
# Synergy Index (SI) is calculated as shown below. An SI value of less than 1 indicates synergy.
# Ca: Concentration of biocide A required to achieve bacterial concentrations of 2×10^3 CFU/ml or less when used in combination
# CA: Concentration of biocide A required to achieve bacterial concentrations of 2×10^3 CFU/ml or less when used alone
# Cb: Concentration of biocide B required to achieve bacterial concentrations of 2×10^3 CFU/ml or less when used in combination
# CB: Concentration of biocide B required to achieve bacterial concentrations of 2×10^3 CFU/ml or less when used alone
compound,measurement,setting,value
tetrakis(hydroxymethyl)phosphonium sulfate [THPS],"Concentration of active needed to achieve bacterial concentrations of 2×10^3 CFU/ml or less, biocide used alone",4 hr,100 ppm
same,"Concentration of active needed to achieve bacterial concentrations of 2×10^3 CFU/ml or less, biocide used alone",24 hr,75 ppm
same,"Concentration of active needed to achieve bacterial concentrations of 2×10^3 CFU/ml or less, biocide used alone",48 hr,75 ppm
same,"Concentration of active needed to achieve bacterial concentrations of 2×10^3 CFU/ml or less, biocide used alone",3 day,75 ppm
same,"Concentration of active needed to achieve bacterial concentrations of 2×10^3 CFU/ml or less, biocide used alone",5 day,75 ppm
same,"Concentration of active needed to achieve bacterial concentrations of 2×10^3 CFU/ml or less, biocide used alone",7 day,75 ppm
"CCCCCCCCCCCCCC[P+](CCCC)(CCCC)CCCC.[Cl-] [TTPC, tributyl tetradecyl phosphonium chloride]","Concentration of active needed to achieve bacterial concentrations of 2×10^3 CFU/ml or less, biocide used alone",4 hr,30 ppm
same,"Concentration of active needed to achieve bacterial concentrations of 2×10^3 CFU/ml or less, biocide used alone",24 hr,40 ppm
same,"Concentration of active needed to achieve bacterial concentrations of 2×10^3 CFU/ml or less, biocide used alone",48 hr,40 ppm
same,"Concentration of active needed to achieve bacterial concentrations of 2×10^3 CFU/ml or less, biocide used alone",3 day,40 ppm
same,"Concentration of active needed to achieve bacterial concentrations of 2×10^3 CFU/ml or less, biocide used alone",5 day,40 ppm
same,"Concentration of active needed to achieve bacterial concentrations of 2×10^3 CFU/ml or less, biocide used alone",7 day,40 ppm
